Test results published in US7494993B2, “Amide derivatives of 7-amino-3-phenyl-dihydropyrimido[4,5-d]pyrimidinones, their manufacture and use as pharmaceutical agents” (Hoffmann-La Roche Inc., priority 2004, dated 2009).
pIC50: −log10 of the molar value.

Key:
[1] = biological target: T1, Src (p60^c-src, partially purified) (Homo sapiens, UniProt P12931); experiment: SRC-Inhibitor-Assay, time-resolved fluorescence kinase assay (Src); assay type: biochemical; settings: ATP 5 μM; enzyme pre-incubated with inhibitor 15 min at 15° C.
T1 construct: purchased UBI, Upstate Biotech, Inc
Method: (§1) The activity of the compounds according to this invention as inhibitors for the src-family tyrosine kinases was shown by using the following assay. • SRC-Inhibitor-Assay Parameters: • Reaction mixture: • ATP 5 μM • Peptide (Ro+Ja133-Ro): 10 μM • Ja133-Ro 196 nM • Ro 9.8 μM • PT66 230 ng/ml • Assay buffer: 4 mM MgCl2 • 2 mM TCEP • 50 mM HEPES • 0.1% Tween 20 • pH 7.3 • Enzyme: 2.5 U/ml • Inhibitor: max. 25 μM • min. 0.42 nM
(§2) Material: • Eu-labelled phosphotyrosine antibody: for Lck Cisbio Mab PT66-K, • for Src EG&G Wallac PT66 Eu-W1024 (all commercially available). • Peptides: Ro: NH2-A-E-E-E-I-Y-G-E-F-E-A-K-K-K-K-CONH2, and • Ja133-Ro: Ja133-G-Aminocaprylic acid-A-E-E-E-I-Y-G-E-F-E-A-K-K-K-K-CONH2, wherein Ja133 is LightCycler-Red 640-N-hydroxy succinimide ester; • whereby both peptides were synthesized by an optimized solid phase peptide synthesis protocol (Merrifield, Fed. Proc. Fed. Amer. Soc. Exp. Biol. 21 (1962) 412) on a Zinsser SMP350 peptide synthesizer. Shortly, the peptide was assembled on 160 mg (22.8 μmol scale) of a Rink-Linker modified polystyrene solid phase by repeatedly conjugating an twenty fold excess of amino acids each protected by temporary piperidine labile Fmoc- and permanent acid labile tert-Bu-, BOC- and O-tert-Bu-groups depending on the side chain function. The substrate sequence AEEEIYGEFEAKKKK was N-terminal additionally mounted with the spacer amino acids Aminocaprylic acid and Glycin. After cleavage of the N-terminal temporary protecting group the still attached and protected peptide was labeled with a 1.5 fold amount of LightCycler-Red 640-N-hydroxy succinimide ester (purchased from Roche Diagnostics GmbH) and triethylamine. After 3 hrs. the resin was washed with Dimethylformamide and Isopropanol until the eluates of the blue resin got colourless. […] The substrate was finally isolated by a preparative reverse phase HPLC purification.
(§3) The purification yielded 12.2 mg RP-HPLC single peak pure blue material (lyophilisate). The identity was proven by MALDI mass spectroscopy [2720.0]. • Enzymes: Upstate Lck (p56^kk, active), Upstate Src (p60^c-src, partially purified) were purchased from UBI, Upstate Biotech, Inc.
(§4) Time-resolved Fluorescence Assay: Reader: Perkin Elmer, Wallac Viktor 1420-040 multilabel counter; Liquid handling system: Beckman Coulter, Biomek 2000.
(§5) ATP, Tween™ 20, 4-(2-hydroxyethyl)-1-piperazineethanesulfonic acid (HEPES) were purchased from Roche Molecular Biochemicals, MgCl2 and MnCl2 were purchased from Merck Eurolab, Tris(2-carboxyethyl)phosphine hydrochloride (TCEP) was purchased from Pierce, 384 Well low volume fluorescence plates was purchased from Falcon.
(§6) At first the enzyme is pre-incubated for 15 min. at 15° C. in aqueous solution with corresponding amounts of inhibitors according to this invention. Then the phosphorylation reaction is started by adding a reaction mixture, containing ATP, Peptide and PT66, and subsequent shaking. The proceeding of this reaction is immediately monitored using time resolved fluorescence spectroscopy in a suitable well plate reader.
(§7) The IC50-values can be obtained from the reaction rates by using a non-linear curve fit (XLfit software (ID Business Solution Ltd., Guilford, Surrey, UK))

Lck (p56^kk, active) = biological target: T2, Lck (p56^kk, active) (Homo sapiens, UniProt P06239); experiment: SRC-Inhibitor-Assay, time-resolved fluorescence kinase assay (Lck); assay type: biochemical; settings: ATP 5 μM; enzyme pre-incubated with inhibitor 15 min at 15° C.
T2 construct: purchased UBI, Upstate Biotech, Inc
Method: as §1, §2, §3, §4, §5, §6, §7

T1 sequence (P12931 whole entry, species assumed): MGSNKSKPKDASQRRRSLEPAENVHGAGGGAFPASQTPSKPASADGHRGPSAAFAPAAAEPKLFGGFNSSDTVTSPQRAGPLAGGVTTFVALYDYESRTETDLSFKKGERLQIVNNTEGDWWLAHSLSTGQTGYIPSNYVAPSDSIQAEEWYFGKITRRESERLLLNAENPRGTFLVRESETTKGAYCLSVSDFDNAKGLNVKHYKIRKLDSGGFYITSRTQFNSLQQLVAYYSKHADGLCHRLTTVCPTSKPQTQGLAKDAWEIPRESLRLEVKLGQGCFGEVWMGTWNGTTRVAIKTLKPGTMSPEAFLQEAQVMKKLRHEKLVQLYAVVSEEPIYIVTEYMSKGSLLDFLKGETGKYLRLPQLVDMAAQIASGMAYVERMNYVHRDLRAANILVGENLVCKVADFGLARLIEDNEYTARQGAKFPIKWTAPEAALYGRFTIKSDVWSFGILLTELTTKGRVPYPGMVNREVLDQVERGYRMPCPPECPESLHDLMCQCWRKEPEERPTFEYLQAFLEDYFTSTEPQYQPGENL
T2 sequence (P06239 whole entry, species assumed): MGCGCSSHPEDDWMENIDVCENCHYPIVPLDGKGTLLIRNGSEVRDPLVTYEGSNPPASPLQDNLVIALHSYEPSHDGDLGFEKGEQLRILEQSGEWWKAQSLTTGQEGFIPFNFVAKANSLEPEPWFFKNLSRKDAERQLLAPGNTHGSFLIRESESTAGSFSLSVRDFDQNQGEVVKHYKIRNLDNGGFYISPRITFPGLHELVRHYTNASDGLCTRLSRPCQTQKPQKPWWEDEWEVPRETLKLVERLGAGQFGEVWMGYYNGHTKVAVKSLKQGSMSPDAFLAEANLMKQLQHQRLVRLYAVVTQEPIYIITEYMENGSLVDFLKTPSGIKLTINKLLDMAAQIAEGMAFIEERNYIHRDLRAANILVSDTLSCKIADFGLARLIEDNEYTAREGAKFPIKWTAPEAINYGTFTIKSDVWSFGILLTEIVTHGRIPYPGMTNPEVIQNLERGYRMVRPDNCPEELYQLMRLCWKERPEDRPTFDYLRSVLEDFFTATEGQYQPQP

pIC50 [1]	pIC50 (Lck (p56^kk, active))	SMILES
6.82 to 7.30	6.82 to 7.30	CN1C(=O)N(c2cc(NC(=O)c3ccc(-c4ccccc4)cc3)ccc2Cl)Cc2cnc(N)nc21 [Example 1, Biphenyl-4-carboxylic acid[3-(7-amino-1-methyl-2-oxo-1,4-dihydro-2H-pyrimido[4,5-d]pyrimidin-3-yl)-4-chloro-phenyl]-amide]
6.82 to 7.30	6.82 to 7.30	CN1C(=O)N(c2cc(NC(=O)c3cccc(-c4ccccc4)c3)ccc2Cl)Cc2cnc(N)nc21 [Example 2-3, Biphenyl-3-carboxylic acid [3-(7-amino-1-methyl-2-oxo-1,4-dihydro-2H-pyrimido[4,5-d]pyrimidin-3-yl)-4-chloro-phenyl]-amide]
7.13	6.77	CN1C(=O)N(c2cc(NC(=O)c3ccc(N4CCOCC4)cc3)ccc2Cl)Cc2cnc(N)nc21 [Example 2-7, N-[3-(7-Amino-1-methyl-2-oxo-1,4-dihydro-2H-pyrimido[4,5-d]pyrimidin-3-yl)-4-chloro-phenyl]-4-morpholin-4-yl-benzamide]
7.39	7.41	CN1C(=O)N(c2cc(NC(=O)C=Cc3ccccc3)ccc2Cl)Cc2cnc(N)nc21 [Example 2-14, N-[3-(7-Amino-1-methyl-2-oxo-1,4-dihydro-2H-pyrimido[4,5-d]pyrimidin-3-yl)-4-chloro-phenyl]-3-phenyl-acrylamide]
6.82 to 7.30	6.82 to 7.30	CN1C(=O)N(c2cc(NC(=O)c3cccc4ccccc34)ccc2Cl)Cc2cnc(N)nc21 [Example 2-15, Naphthalene-1-carboxylic acid [3-(7-amino-1-methyl-2-oxo-1,4-dihydro-2H-pyrimido[4,5-d]pyrimidin-3-yl)-4-chloro-phenyl]-amide]
6.82 to 7.30	6.82 to 7.30	CN1C(=O)N(c2cc(NC(=O)c3ccc(-c4ccccn4)cc3)ccc2Cl)Cc2cnc(N)nc21 [Example 2-22, N-[3-(7-Amino-1-methyl-2-oxo-1,4-dihydro-2H-pyrimido[4,5-d]pyrimidin-3-yl)-4-chloro-phenyl]-4-pyridin-2-yl-benzamide]
6.82 to 7.30	6.82 to 7.30	CN1C(=O)N(c2cc(NC(=O)c3ccc(-c4ccc[nH]4)cc3)ccc2Cl)Cc2cnc(N)nc21 [Example 2-24, N-[3-(7-Amino-1-methyl-2-oxo-1,4-dihydro-2H-pyrimido[4,5-d]pyrimidin-3-yl)-4-chloro-phenyl]-4-(1H-pyrrol-2-yl)-benzamide]
